Assay results published in paper PMC9019041, “Structural insights into the peptide selectivity and activation of human neuromedin U receptors” (Nature Communications, 2022).
Where no end group is shown, it is not given here.

Key:
Format in all cases: cell-based
NMUR2 T203A = target: T1, NMUR2 T203A (Homo sapiens, UniProt Q9GZQ4, T203A); experiment: IP-One assay, NMUR2 T203A; conditions: mean ± S.E.M., three independent experiments (n=3), SEM, read-out: IP1 accumulation pEC50 ± S.E.M. (converted)
T1 construct: expressed in transfected cells; host or cells: AD293 cells
Description: (§1) IP-One production was measured using the IP-One HTRF kit (Cisbio)[62]. Briefly, AD293 cells (Agilent) were grown to a density of 400,000–500,000 cells per mL and then infected with separate plasmids at a suitable concentration. The culture was collected by centrifugation 24 h after incubation at 37 °C in 5% CO2 with a Stimulation Buffer. The cell suspension was then dispensed in a white 384-well plate at a volume of 7 μl per well before adding 7 μl of ligands. The mixture was incubated for 1 h at 37 °C. IP-One-d2 and anti-IP-One Cryptate dissolved in Lysis Buffer (3 μl each) were subsequently added and incubated for 15-30 min at room temperature before measurement. Intracellular IP-One measurement was carried with the IP-One HTRF kit and EnVision multi-plate reader (PerkinElmer) according to the manufacturer’s instructions. Data were normalized to the baseline response of the ligand.
(§2) The significance was determined with two-side, one-way ANOVA with Tukey’s test, and ^*P < 0.05 was considered statistically significant.

NMUR2 V310A = target: T2, NMUR2 V310A (Homo sapiens, UniProt Q9GZQ4, V310A); experiment: IP-One assay, NMUR2 V310A; conditions: mean ± S.E.M., three independent experiments (n=3), SEM, read-out: IP1 accumulation pEC50 ± S.E.M. (converted)
T2 construct: expressed in transfected cells; host or cells: AD293 cells
Description: as §1, §2

NMUR2 F291A = target: T3, NMUR2 F291A (Homo sapiens, UniProt Q9GZQ4, F291A); experiment: IP-One assay, NMUR2 F291A; conditions: mean ± S.E.M., three independent experiments (n=3), SEM, read-out: IP1 accumulation pEC50 ± S.E.M. (converted)
T3 construct: expressed in transfected cells; host or cells: AD293 cells
Description: as §1, §2

NMUR2 E105A = target: T4, NMUR2 E105A (Homo sapiens, UniProt Q9GZQ4, E105A); experiment: IP-One assay, NMUR2 E105A; conditions: mean ± S.E.M., three independent experiments (n=3), SEM, read-out: IP1 accumulation pEC50 ± S.E.M. (converted)
T4 construct: expressed in transfected cells; host or cells: AD293 cells
Description: as §1, §2

NMUR2 H309A = target: T5, NMUR2 H309A (Homo sapiens, UniProt Q9GZQ4, H309A); experiment: IP-One assay, NMUR2 H309A; conditions: mean ± S.E.M., three independent experiments (n=3), SEM, read-out: IP1 accumulation pEC50 ± S.E.M. (converted)
T5 construct: expressed in transfected cells; host or cells: AD293 cells
Description: as §1, §2

NMUR2 D287A = target: T6, NMUR2 D287A (Homo sapiens, UniProt Q9GZQ4, D287A); experiment: IP-One assay, NMUR2 D287A; conditions: mean ± S.E.M., three independent experiments (n=3), SEM, read-out: IP1 accumulation pEC50 ± S.E.M. (converted)
T6 construct: expressed in transfected cells; host or cells: AD293 cells
Description: as §1, §2

NMUR1 Y125A = target: T7, NMUR1 Y125A (Homo sapiens, UniProt Q9HB89, Y125A); experiment: IP-One assay, NMUR1 Y125A; conditions: mean ± S.E.M., three independent experiments (n=3), SEM, read-out: IP1 accumulation pEC50 ± S.E.M. (converted)
T7 construct: The full-length human NMUR1 and NMUR2 were modified; expressed in transfected cells; host or cells: AD293 cells
Description: as §1, §2

NMUR2 F305A = target: T8, NMUR2 F305A (Homo sapiens, UniProt Q9GZQ4, F305A); experiment: IP-One assay, NMUR2 F305A; conditions: mean ± S.E.M., three independent experiments (n=3), SEM, read-out: IP1 accumulation pEC50 ± S.E.M. (converted)
T8 construct: expressed in transfected cells; host or cells: AD293 cells
Description: as §1, §2

NMUR2 Y317A = target: T9, NMUR2 Y317A (Homo sapiens, UniProt Q9GZQ4, Y317A); experiment: IP-One assay, NMUR2 Y317A; conditions: mean ± S.E.M., three independent experiments (n=3), SEM, read-out: IP1 accumulation pEC50 ± S.E.M. (converted)
T9 construct: expressed in transfected cells; host or cells: AD293 cells (Agilent)
Description: as §1, §2

NMUR1 E142A = target: T10, NMUR1 E142A (Homo sapiens, UniProt Q9HB89, E142A); experiment: IP-One assay, NMUR1 E142A; conditions: mean ± S.E.M., three independent experiments (n=3), SEM, read-out: IP1 accumulation pEC50 ± S.E.M. (converted)
T10 construct: The full-length human NMUR1 and NMUR2 were modified; expressed in transfected cells; host or cells: AD293 cells
Description: as §1, §2

NMUR2 Y52A = target: T11, NMUR2 Y52A (Homo sapiens, UniProt Q9GZQ4, Y52A); experiment: IP-One assay, NMUR2 Y52A; conditions: mean ± S.E.M., three independent experiments (n=3), SEM, read-out: IP1 accumulation pEC50 ± S.E.M. (converted)
T11 construct: expressed in transfected cells; host or cells: AD293 cells
Description: as §1, §2

NMUR2 S312A = target: T12, NMUR2 S312A (Homo sapiens, UniProt Q9GZQ4, S312A); experiment: IP-One assay, NMUR2 S312A; conditions: mean ± S.E.M., three independent experiments (n=3), SEM, read-out: IP1 accumulation pEC50 ± S.E.M. (converted)
T12 construct: expressed in transfected cells; host or cells: AD293 cells
Description: as §1, §2

NMUR2 F126A = target: T13, NMUR2 F126A (Homo sapiens, UniProt Q9GZQ4, F126A); experiment: IP-One assay, NMUR2 F126A; conditions: mean ± S.E.M., three independent experiments (n=3), SEM, read-out: IP1 accumulation pEC50 ± S.E.M. (converted)
T13 construct: expressed in transfected cells; host or cells: AD293 cells
Description: as §1, §2

NMUR1 F334A = target: T14, NMUR1 F334A (Homo sapiens, UniProt Q9HB89, F334A); experiment: IP-One assay, NMUR1 F334A; conditions: mean ± S.E.M., three independent experiments (n=3), SEM, read-out: IP1 accumulation pEC50 ± S.E.M. (converted)
T14 construct: The full-length human NMUR1 and NMUR2 were modified; expressed in transfected cells; host or cells: AD293 cells
Description: as §1, §2

NMUR2 W297A = target: T15, NMUR2 W297A (Homo sapiens, UniProt Q9GZQ4, W297A); experiment: IP-One assay, NMUR2 W297A; conditions: mean ± S.E.M., three independent experiments (n=3), SEM, read-out: IP1 accumulation pEC50 ± S.E.M. (converted)
T15 construct: expressed in transfected cells; host or cells: AD293 cells
Description: as §1, §2

NMUR2 F316A = target: T16, NMUR2 F316A (Homo sapiens, UniProt Q9GZQ4, F316A); experiment: IP-One assay, NMUR2 F316A; conditions: mean ± S.E.M., three independent experiments (n=3), SEM, read-out: IP1 accumulation pEC50 ± S.E.M. (converted)
T16 construct: expressed in transfected cells; host or cells: AD293 cells (Agilent)
Description: as §1, §2

NMUR1 V339A = target: T17, NMUR1 V339A (Homo sapiens, UniProt Q9HB89, V339A); experiment: IP-One assay, NMUR1 V339A; conditions: mean ± S.E.M., three independent experiments (n=3), SEM, read-out: IP1 accumulation pEC50 ± S.E.M. (converted)
T17 construct: The full-length human NMUR1 and NMUR2 were modified; expressed in transfected cells; host or cells: AD293 cells
Description: as §1, §2

NMUR1 D316A = target: T18, NMUR1 D316A (Homo sapiens, UniProt Q9HB89, D316A); experiment: IP-One assay, NMUR1 D316A; conditions: mean ± S.E.M., three independent experiments (n=3), SEM, read-out: IP1 accumulation pEC50 ± S.E.M. (converted)
T18 construct: The full-length human NMUR1 and NMUR2 were modified; expressed in transfected cells; host or cells: AD293 cells
Description: as §1, §2

NMUR1 W320A = target: T19, NMUR1 W320A (Homo sapiens, UniProt Q9HB89, W320A); experiment: IP-One assay, NMUR1 W320A; conditions: mean ± S.E.M., three independent experiments (n=3), SEM, read-out: IP1 accumulation pEC50 ± S.E.M. (converted)
T19 construct: The full-length human NMUR1 and NMUR2 were modified; expressed in transfected cells; host or cells: AD293 cells
Description: as §1, §2

NMUR2 F44A = target: T20, NMUR2 F44A (Homo sapiens, UniProt Q9GZQ4, F44A); experiment: IP-One assay, NMUR2 F44A; conditions: mean ± S.E.M., three independent experiments (n=3), SEM, read-out: IP1 accumulation pEC50 ± S.E.M. (converted)
T20 construct: The full-length human NMUR1 and NMUR2 were modified; expressed in transfected cells; host or cells: AD293 cells
Description: as §1, §2

NMUR1 L59A = target: T21, NMUR1 L59A (Homo sapiens, UniProt Q9HB89, L59A); experiment: IP-One assay, NMUR1 L59A; conditions: mean ± S.E.M., three independent experiments (n=3), SEM, read-out: IP1 accumulation pEC50 ± S.E.M. (converted)
T21 construct: The full-length human NMUR1 and NMUR2 were modified; expressed in transfected cells; host or cells: AD293 cells
Description: as §1, §2

NMUR2 F284A = target: T22, NMUR2 F284A (Homo sapiens, UniProt Q9GZQ4, F284A); experiment: IP-One assay, NMUR2 F284A; conditions: mean ± S.E.M., three independent experiments (n=3), SEM, read-out: IP1 accumulation pEC50 ± S.E.M. (converted)
T22 construct: expressed in transfected cells; host or cells: AD293 cells
Description: as §1, §2

NMUR2 Y110A = target: T23, NMUR2 Y110A (Homo sapiens, UniProt Q9GZQ4, Y110A); experiment: IP-One assay, NMUR2 Y110A; conditions: mean ± S.E.M., three independent experiments (n=3), SEM, read-out: IP1 accumulation pEC50 ± S.E.M. (converted)
T23 construct: expressed in transfected cells; host or cells: AD293 cells
Description: as §1, §2

NMUR2 M106A = target: T24, NMUR2 M106A (Homo sapiens, UniProt Q9GZQ4, M106A); experiment: IP-One assay, NMUR2 M106A; conditions: mean ± S.E.M., three independent experiments (n=3), SEM, read-out: IP1 accumulation pEC50 ± S.E.M. (converted)
T24 construct: expressed in transfected cells; host or cells: AD293 cells
Description: as §1, §2

NMUR2 WT = target: T25, NMUR2 WT (Homo sapiens, UniProt Q9GZQ4); experiment: IP-One assay, NMUR2 WT; conditions: NMUR2 WT; mean ± S.E.M., three independent experiments (n=3); SEM; read-out: IP1 accumulation pEC50 ± S.E.M. (converted)
T25 construct: The full-length human NMUR1 and NMUR2 were modified; expressed in transfected cells; host or cells: AD293 cells
Description: as §1, §2

T16 sequence (Q9GZQ4 whole entry F316A): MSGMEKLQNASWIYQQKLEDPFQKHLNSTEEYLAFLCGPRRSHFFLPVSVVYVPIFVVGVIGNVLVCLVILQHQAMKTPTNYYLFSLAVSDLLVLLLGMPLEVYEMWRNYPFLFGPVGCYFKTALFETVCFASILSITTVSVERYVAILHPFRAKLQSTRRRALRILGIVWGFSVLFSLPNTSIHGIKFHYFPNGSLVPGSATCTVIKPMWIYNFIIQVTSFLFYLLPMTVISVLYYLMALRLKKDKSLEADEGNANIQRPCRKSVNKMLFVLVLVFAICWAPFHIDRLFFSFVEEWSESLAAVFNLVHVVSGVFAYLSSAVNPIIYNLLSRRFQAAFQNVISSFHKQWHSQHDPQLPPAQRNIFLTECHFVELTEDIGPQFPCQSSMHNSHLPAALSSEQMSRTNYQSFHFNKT
T25 sequence (Q9GZQ4 whole entry): as the sequence (Q9GZQ4 whole entry F316A) above, with A316F counted along it
T19 sequence (Q9HB89 whole entry W320A): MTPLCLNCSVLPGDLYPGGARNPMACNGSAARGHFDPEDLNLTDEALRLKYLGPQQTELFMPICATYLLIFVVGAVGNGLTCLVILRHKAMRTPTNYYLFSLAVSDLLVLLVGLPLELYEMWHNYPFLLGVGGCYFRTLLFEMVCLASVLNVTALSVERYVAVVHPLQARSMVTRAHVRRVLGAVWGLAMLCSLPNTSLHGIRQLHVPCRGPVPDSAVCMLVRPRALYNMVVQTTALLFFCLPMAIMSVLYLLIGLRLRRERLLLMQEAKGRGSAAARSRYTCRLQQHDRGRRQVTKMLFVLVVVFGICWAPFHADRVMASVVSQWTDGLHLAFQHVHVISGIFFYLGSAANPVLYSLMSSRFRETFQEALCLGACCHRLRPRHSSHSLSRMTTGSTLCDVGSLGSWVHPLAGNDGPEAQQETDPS
T24 sequence (Q9GZQ4 whole entry M106A): as the sequence (Q9GZQ4 whole entry F316A) above, with M106A, A316F counted along it
T1 sequence (Q9GZQ4 whole entry T203A): as the sequence (Q9GZQ4 whole entry F316A) above, with T203A, A316F counted along it
T3 sequence (Q9GZQ4 whole entry F291A): as the sequence (Q9GZQ4 whole entry F316A) above, with F291A, A316F counted along it
T11 sequence (Q9GZQ4 whole entry Y52A): as the sequence (Q9GZQ4 whole entry F316A) above, with Y52A, A316F counted along it
T13 sequence (Q9GZQ4 whole entry F126A): as the sequence (Q9GZQ4 whole entry F316A) above, with F126A, A316F counted along it
T4 sequence (Q9GZQ4 whole entry E105A): as the sequence (Q9GZQ4 whole entry F316A) above, with E105A, A316F counted along it
T6 sequence (Q9GZQ4 whole entry D287A): as the sequence (Q9GZQ4 whole entry F316A) above, with D287A, A316F counted along it
T18 sequence (Q9HB89 whole entry D316A): as the sequence (Q9HB89 whole entry W320A) above, with D316A, A320W counted along it
T14 sequence (Q9HB89 whole entry F334A): as the sequence (Q9HB89 whole entry W320A) above, with A320W, F334A counted along it
T20 sequence (Q9GZQ4 whole entry F44A): as the sequence (Q9GZQ4 whole entry F316A) above, with F44A, A316F counted along it
T12 sequence (Q9GZQ4 whole entry S312A): as the sequence (Q9GZQ4 whole entry F316A) above, with S312A, A316F counted along it
T5 sequence (Q9GZQ4 whole entry H309A): as the sequence (Q9GZQ4 whole entry F316A) above, with H309A, A316F counted along it
T2 sequence (Q9GZQ4 whole entry V310A): as the sequence (Q9GZQ4 whole entry F316A) above, with V310A, A316F counted along it
T17 sequence (Q9HB89 whole entry V339A): as the sequence (Q9HB89 whole entry W320A) above, with A320W, V339A counted along it
T8 sequence (Q9GZQ4 whole entry F305A): as the sequence (Q9GZQ4 whole entry F316A) above, with F305A, A316F counted along it
T10 sequence (Q9HB89 whole entry E142A): as the sequence (Q9HB89 whole entry W320A) above, with E142A, A320W counted along it
T7 sequence (Q9HB89 whole entry Y125A): as the sequence (Q9HB89 whole entry W320A) above, with Y125A, A320W counted along it
T9 sequence (Q9GZQ4 whole entry Y317A): as the sequence (Q9GZQ4 whole entry F316A) above, with A316F, Y317A counted along it
T22 sequence (Q9GZQ4 whole entry F284A): as the sequence (Q9GZQ4 whole entry F316A) above, with F284A, A316F counted along it
T21 sequence (Q9HB89 whole entry L59A): as the sequence (Q9HB89 whole entry W320A) above, with L59A, A320W counted along it
T23 sequence (Q9GZQ4 whole entry Y110A): as the sequence (Q9GZQ4 whole entry F316A) above, with Y110A, A316F counted along it
T15 sequence (Q9GZQ4 whole entry W297A): as the sequence (Q9GZQ4 whole entry F316A) above, with W297A, A316F counted along it

In the case of “FRVDEEFQSPFASQSRGYFLFRPRN-NH2 [NMU, neuromedin U]”, the EC50 (NMUR2 T203A) is reported as 0.891 nM, the EC50 (NMUR2 V310A) is reported as 0.631 nM and the EC50 (NMUR2 F291A) is reported as 4.68 nM. For the same substance, the EC50 (NMUR2 E105A) was 11.7 nM, the EC50 (NMUR2 H309A) was 0.646 nM and the EC50 (NMUR2 D287A) was 1.15 nM. For the same substance, the EC50 (NMUR1 Y125A) was 20 nM, the EC50 (NMUR2 F305A) was 12.3 nM and the EC50 (NMUR2 Y317A) was 2.63 nM. It also gave an EC50 (NMUR1 E142A) of 47.9 nM, an EC50 (NMUR2 Y52A) of 1 nM and an EC50 (NMUR2 S312A) of 2.45 nM. For the same substance, the EC50 (NMUR2 F126A) was 2 nM, the EC50 (NMUR1 F334A) was 85.1 nM and the EC50 (NMUR2 W297A) was 66.1 nM. The EC50 (NMUR2 F316A) was 8.71 nM, the EC50 (NMUR1 V339A) was 11.5 nM and the EC50 (NMUR1 D316A) was 10.5 nM. The EC50 (NMUR1 W320A) was 2880 nM, the EC50 (NMUR2 F44A) was 102 nM and the EC50 (NMUR1 L59A) was 110 nM. It also gave an EC50 (NMUR2 F284A) of 7.08 nM, an EC50 (NMUR2 Y110A) of 186 nM and an EC50 (NMUR2 M106A) of 19.5 nM. For the same substance, the EC50 (NMUR2 WT) was 0.631 nM.
